Test results reported in US20210393586A1, “Compounds for Use in the Treatment of Bacterial Infections” (Universität Konstanz, priority 2018, published 2021).

Legend:
[1] = tested on: quinolone and phenazine production of P. aeruginosa PA14; test: Quinolone and phenazine inhibition in P. aeruginosa PA14 cultures, LC-MS/MS of supernatants; assay type: cell-based, Pseudomonas aeruginosa
Experimental: (§1) A LC-MS/MS method was established using characteristic mass transitions for quantitative analysis of metabolites in the supernatants of P. aeruginosa (Table 1, FIGS. 13 to 15). A library of phenazines and synthetic AQs and AQNOs served as standards (Szamosvári, D.; Böttcher, T., Angew Chem Int Ed Engl 2017, 56 (25), 7271-7275). There were also analyzed phenazines, including phenazine-1-carboxamide (PHZ-CA), 1-hydroxyphenazine (1-OH-PHZ), and pyocyanin (PYO), which are produced as virulence factors partially under control of the PQS quorum sensing system (FIG. 16a).
(§2) Ultra-high performance liquid chromatography was performed on a Dionex Ultimate 3000 UHPLC (Thermo Fisher Scientific, Waltham, Mass.) using a Nucleodur C18 Gravity-SB 150×2 mm, 3 μm column (Macherey-Nagel). The flow rate was 0.5 mL/min and the columns temperature was held at 40° C. The injection volume was 5 μL using pick up injection mode. Eluent A was 0.1% formic acid in water and eluent B was acetonitrile. The gradient was 20-100% B in 10 min, 100% B for 2 min, 100-20% B in 1 min and 20% B for 2 min. MS/MS analysis was performed by a Finnigan™ TSQ® Quantum (Thermo electron corporation) mass spectrometer in the SRM (Selected Reaction Monitoring) scan mode. As ion source a heated-electrospray ionization (HESI-II probe, Thermo scientific) was used. In the optimized conditions the ion spray voltage was 3500 V, vaporizer temperature 300° C., capillary temperature 380° C., sheath gas pressure 60 psi, ion sweep gas pressure 2 psi, aux gas 10 psi. The tube lens offset was 80 V and skimmer offset 0. Data were acquired in a mass range of m/z 130-350, and MS/MS acquisition of all compounds was performed in positive mode and fixed collision energy of 30 eV. Dwell time was 0.050 sec for all compounds.
The software Quan Browser Thermo Xcalibur 3.1.66.10 was used for quantitative analysis. The standard peak area of the product ions was fitted by linear regression versus the known concentrations to generate a standard curve. […]

[2] = tested on: P. aeruginosa PA01; test: Bacterial growth curve analysis, P. aeruginosa PAO1; assay type: cell-based, Pseudomonas aeruginosa; conditions: concentrations up to 100 μM, 27 h at 37° C.
Experimental: (§3) In a sterile 15 mL polypropylene centrifuge tubes with screw caps (Roth) 20 μL of a respective DMSO Stock of the compounds represented by Formulas (2) and (5), or 20 μL DMSO as vehicle control was added for 1% final DMSO concentration. Then, 2 mL of LB medium and 6 μL of an overnight culture of P. aeruginosa PA01 or PA14 was added per sample. The samples were incubated for 27 h at 37° C. (190 rpm). At indicated incubation times 50 μL LB medium and 50 μL of culture were transferred in a cuvette, mixed and the adsorption measured at 600 nm.

[3] = tested on: HHQ production of P. aeruginosa PAO1; test: 2-ABA feeding of P. aeruginosa PAO1, HHQ quantified by LC-MS/MS; assay type: cell-based, Pseudomonas aeruginosa; conditions: P. aeruginosa PAO1 grown with 50 μM compound, 2-ABA total 12 mM, 11 h at 37° C.
Experimental: 10 μL of a 5 mM stock of the compound represented by Formula (2) in DMSO or 10 μL of DMSO as vehicle control (1% final DMSO concentration) was added in 1 mL LB medium in 15 mL polypropylene centrifugal tubes. Then, 5 μL P. aeruginosa PAO1 overnight culture was added and grown at 37° C. (190 rpm). Due to the instability of 2-ABA, it was added in six portions. After several time points (6 h, 6.5 h, 7 h, 7.5 h, 8 h and 10 h) the cultures treated with the compound represented by Formula (2) were supplemented with 20 μL 100 mM 2-ABA stock in basic solution (1% NH4OH) or 20 μL basic solution (1% NH4OH) as vehicle control. To investigate the effect of basic solution, the DMSO containing control samples were supplemented with same amounts of basic solution compared to treated samples. The total amount of 2-ABA added to each sample was 12 mM and the pH of the cultures after addition of the total volume of basic solution was under pH 8. After 11 h cultures were centrifuged, supernatants sterile filtered and HHQ extracted and quantified by LC-MS/MS according to the previously described protocol.

[4] = tested on: P. aeruginosa PAO1; test: Minimum inhibitory concentration, P. aeruginosa PAO1; assay type: cell-based; conditions: Pseudomonas aeruginosa; P. aeruginosa PAO1, LB, 24 h at 37° C.
Experimental: (§4) An overnight culture of P. aeruginosa PAO1 or PA14 was diluted 1:1000 in LB media. Afterwards, 99 μL of bacterial suspension and 1 μL of a corresponding stock solution of the compound represented by Formula (2) in DMSO was added to each well of a sterile, round-bottom 96-well plate. The compound represented by Formula (2) was applied in final concentrations of 1000, 500, 100, 50, 10, 5, 1, 0.5, 0.1, 0.05 μM in triplicates. The plate was incubated for 24 h at 37° C. (180 rpm).

[5] = target: T1, PqsD (Pseudomonas aeruginosa, UniProt P20582); test: Proteomic analysis of active site modification of PqsD after in situ inhibition; assay type: cell-based; conditions: PqsD inhibited in live E. coli cells, tryptic digest, LC-MS
T1 construct: expressed in transfected cells; host or cells: E. coli BL21 containing pDEST/pqsD, induced with anhydrotetracyclin
Experimental: In situ labelling was performed, and 2×SDS loading buffer was added directly to the resulting lysates. After SDS-PAGE and Coomassie staining, the protein band corresponding to PqsD was cut out of the gel. Then, tryptic digestion, sample preparation and LC-MS analysis were performed: Coomassie gel bands were washed in MilliQ for 15 sec, bands cut as close as possible and placed in Eppendorf tubes. For reduction and alkylation, a solution of 10 mM DTT in 50 mM NH4CO3 was added and incubated for 60 min at 56° C. The DTT solution was removed and a solution of 50 mM iodoacetamide in 50 mM NH4CO3 was added and incubated for 60 min at room temperature (rt). In a final washing step, the gel pieces were washed with 100 μL MilliQ water and 100 μL 50 mM NH4CO3 solution, then the solution was removed, and the gel dehydrated with acetonitrile/MilliQ water (3:2). The washing step was repeated until the gel pieces turned colorless. Next, the dehydration solution was removed, and acetonitrile was added for 10 sec before drying on air until complete dryness. The gel pieces were incubated for […] on ice in a freshly prepared cold buffer containing trypsin (10.0 ng/μL) and 50 mM NH4CO3. […] The combined washes and elutions were dried via SpeedVac and analyzed by an Orbitrap Fusion with EASY-nLC1200 instrument.

[6] = tested on: P. aeruginosa PA14; test: Bacterial growth curve analysis, P. aeruginosa PA14; assay type: cell-based, Pseudomonas aeruginosa; conditions: concentrations up to 100 μM, 27 h at 37° C.
Experimental: as §3

[7] = tested on: P. aeruginosa PA14; test: Minimum inhibitory concentration, P. aeruginosa PA14; assay type: cell-based; conditions: Pseudomonas aeruginosa; P. aeruginosa PA14, LB, 24 h at 37° C.
Experimental: as §4

[8] = tested on: quinolone and phenazine production of P. aeruginosa PAO1; test: Quinolone and phenazine inhibition in P. aeruginosa PAO1 cultures, LC-MS/MS of supernatants; assay type: cell-based, Pseudomonas aeruginosa
Experimental: as §1, §2
The software Quan Browser Thermo Xcalibur 3.1.66.10 was used for quantitative analysis. The standard peak area of the product ions was fitted by linear regression versus the known concentrations to generate a standard curve.
Cultures of P. aeruginosa strains PAO1 and PA14 were incubated with different concentrations of the compound represented by Formula (2) for 24 h and extracted culture supernatants were used for LC-MS/MS analysis.
10 μL of a respective DMSO stock solution of compound represented by Formula (2) or 10 μL DMSO as vehicle control (0.33% final DMSO concentration) was added to 3 mL LB medium in 15 mL polypropylene centrifuge tubes with screw caps (VWR) to obtain final concentrations of 10, 50 and 100 μM. Afterwards 10 μL of a P. aeruginosa PAO1 or PA14 overnight culture was added. The caps of the sample tubes were slightly opened and fixed in a defined position by tape to ensure equal oxygen delivery to all samples. […] (180 rpm). Afterwards, the samples were centrifuged and the supernatants sterile filtered. The inhibition assay was performed in 3-4 biological replicates.
500 μL of sterile supernatant was transferred in 1.5 mL glass vials, 500 μL chloroform was added and vortexed thoroughly. Then, 200 μL of the organic layer was transferred in a clean 1.5 mL glass vial and the solvent evaporated by a gentle stream of nitrogen. The extract was stored at −80° C. until measurement. For analysis, 50 μL acetonitrile/water (1:1) was added to each sample.
MeOH stock solutions of PQS, AQs, AQNOs and phenazines were prepared at 1 mg/mL in glass vials and stored at −80° C. A series of standard solutions was prepared freshly before LC-MS/MS analysis by serial dilutions of the stock solution of each analyte in acetonitrile/water (1:1).

T1 sequence (P20582 whole entry): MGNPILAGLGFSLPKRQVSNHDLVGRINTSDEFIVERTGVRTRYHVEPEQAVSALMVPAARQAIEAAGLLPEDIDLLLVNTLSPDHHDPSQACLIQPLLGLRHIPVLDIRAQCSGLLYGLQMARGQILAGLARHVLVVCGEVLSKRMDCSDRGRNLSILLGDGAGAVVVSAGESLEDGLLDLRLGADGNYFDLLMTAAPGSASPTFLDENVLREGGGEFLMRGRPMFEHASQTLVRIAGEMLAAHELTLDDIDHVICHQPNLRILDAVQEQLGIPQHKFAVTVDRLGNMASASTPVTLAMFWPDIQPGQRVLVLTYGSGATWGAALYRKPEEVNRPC

| Compound | production of all major quorum sensing signals, PQS and the chain length congeners of HHQ ([1]; compared with PAO1 (complete inhibition between 50 μM and 100 μM), 24 h) | intensity of quinolones and phenazines (LC-MS/MS chromatograms) ([1]; increasing concentrations 10, 50, 100 μM, 24 h) | growth (OD 600 nm growth curve) [2] | HHQ production after external addition of 2-ABA to inhibited culture [3] | MIC [4] [µM] | site of covalent binding in PqsD (six cysteines in total) [5] | growth (OD 600 nm growth curve) [6] | MIC [7] [µM] | production of all major quorum sensing signals, PQS and the chain length congeners of HHQ ([8]; P. aeruginosa PAO1, between 50 μM and 100 μM, 24 h) | intensity of quinolones and phenazines (LC-MS/MS chromatograms) ([8]; P. aeruginosa PAO1, increasing concentrations 10, 50, 100 μM, 24 h) | IC50 ([8]; Pseudomonas aeruginosa, PAO1, 24 h, read-out: average IC50 for production of all major quorum sensing signals, PQS and the chain length congeners of HHQ) [µM] | production of quinolone N-oxide congeners incl. HQNO, NQNO and trans-Δ1-NQNO ([8]; dose response manner, 10, 50, 100 μM, strain not given, 24 h) | phenazine production (1-OH-PHZ, PHZ-CA, pyocyanin) ([8]; strongest for 1-OH-PHZ and weakest for pyocyanin, strain not given, 24 h) | inhibition of quinolone production ([1]; 100 μM, 27 h at 37° C. (FIG. 20b)) | inhibition of quinolone production ([8]; P. aeruginosa PAO1, 100 μM, 27 h at 37° C. (FIG. 20a)) |
| --- | --- | --- | --- | --- | --- | --- | --- | --- | --- | --- | --- | --- | --- | --- | --- |
| Nc1ccccc1C(=O)CCl [Formula (2), 2′-amino-1-chloro-acetophenone] | slightly lesser degree | considerably decreased | largely unaffected | partially restored | > 1000 | only bound to the active site cysteine (Cys112) | largely unaffected | > 1000 | completely inhibited | considerably decreased | < 10 | inhibited | down-regulation of phenazines | – | – |
| O=C(CCl)c1cccc2cc[nH]c12 [Formula (5)] | – | – | largely unaffected | – | – | – | largely unaffected | – | – | – | – | – | – | observed | observed |
